Results reported in patent US6528516B1, “Methods for reducing intraocular pressure using A3 adenosine receptor antagonists” (Trustees of the University of Pennsylvania, The Center for …, priority 1998, dated 2003).
“Also recorded” adds a separate entry of the source.

Key:
[1] = tested on: large-conductance Cl− channel, NIH 3T3 fibroblasts transfected with MDR1; conditions: NIH 3T3 fibroblasts after MDR1 transfection and growth in colchicine; read-out: EC50 for activation of large-conductance Cl− channel; cited from earlier work
[2] = tested on: swelling-activated Cl− channels of NPE cells; assay: Regulatory volume decrease (RVD) of NPE cells after hypotonic swelling; format: cell-based, human; conditions: for effect on cell volume after RVD: TMX added at t=10 min, conclusion of the RVD
[3] = tested on: bovine pigmented ciliary epithelial (PE) cells; assay: Cell volume (shrinkage) of PE cells in isoosmotic suspension, Coulter Counter; format: cell-based; conditions: for effect of tamoxifen alone on PE cell volume: absence of ATP, 30-min observation
[4] = tested on: Bovine PE cells; assay: Intracellular Ca2+ of PE cells (fura-2); format: cell-based; conditions: for effect of TMX on the Ca2+ response to ATP: 10 μM TMX, 100 μM ATP, 20-sec applications
Procedure: Bovine PE cells grown on coverslips for 2-4 days were loaded with 5 μM fura-2 μAM for 30-45 min at room temperature, and then rinsed and maintained in fura-free solution before beginning data acquisition. The coverslips were mounted on a Nikon Diaphot microscope and visualized with a ×40 oil-immersion fluorescence objective. The emitted fluorescence (510 nm) from 10-12 confluent cells was sampled at 1 Hz following excitation at 340 nm and 380 nm, and the ratio determined with a Delta-Ram system and Felix software (Photon Technology International Inc., Princeton, N.J.). The ratio of light excited at 340 nm to that at 380 nm was converted into Ca^2+ concentration using the method of Grynkiewicz et al. (J. Biol. Chem. 260:3440-3450, 1985). […] Rmin was obtained by bathing cells in a Ca^2+ free isotonic solution of pH 8.0 containing 10 mM EGTA and 5 μM ionomycin. R^max was obtained by bathing the cells in isotonic solution with 1.3 mM Ca^2+ and 5 μM ionomycin. Calibration was performed separately for each experiment. Baseline levels from PE cells in the absence of fura-2 were subtracted from records to control for autofluorescence. Experiments were performed predominantly at room temperature, but several trials were performed at 37° C. using a temperature control unit from Warner Instrument Corp., (Hamden, Conn.). Cells were perfused with an isotonic solution containing (in mM) 105 NaCl, 6HEPES (acid), 4HEPES (Na^+), 1.3 CaCl2, 1 MgCl2, 4 KCl, 5 glucose and 90 mannitol, at an osmolarity of 317 mOsm, pH 7.4.

[5] = 6 μM tamoxifen + 10 μM ATP, 5 μM gramicidin D, Cl− present, FIG. 12A
[6] = 6 μM tamoxifen + 10 μM ATP, FIG. 8C
[7] = 10 μM tamoxifen + 100 μM ATP, FIG. 15, first 6 time points
[8] = 10 μM tamoxifen + 100 μM ATP, FIG. 16A
[9] = 100 μM ATP + 10 μM TMX, FIG. 13C
[10] = 100 μM ATP + 10 μM agent, FIG. 13A
[11] = 100 μM ATP + 10 μM agent, FIG. 14A
[12] = ATP + agent (ATP+TMX; ATP+atropine), FIG. 13B
[13] = ATP + tamoxifen, absence of Cl− channel inhibitors, FIG. 12B

## CC/C(=C(\c1ccccc1)c1ccc(OCCN(C)C)cc1)c1ccccc1 [tamoxifen]
[1]
  EC50: ~15 µM
[2]; TMX added at t=5 min
  effect on regulatory volume decrease (RVD): reduced the magnitude of the RVD
[2]; TMX added at t=5 min, listed as TMX
  effect on regulatory volume decrease (RVD): partially inhibited the steady-state response
[2]
  effect on cell volume after RVD: did not affect cell volume
[2]; listed as TMX
  effect on cell volume after RVD: no effect on cell volume
[2]; TMX added at the time of hypotonic stress, 5 μM gramicidin D
  effect on regulatory volume decrease (RVD): completely abolished the RVD
[2]; TMX added at the time of hypotonic stress, 5 μM gramicidin D, listed as TMX
  effect on regulatory volume decrease (RVD): abolished the RVD
[3]; 3 μM ATP+10 μM TMX, FIG. 8B
  steady-state cell volume (v∞): 96.7±0.4%
  time constant of the shrinkage (τ): 5.8 ± 2.1 min
[3]; [5]
  steady-state cell volume (v∞): 90.6%±1.1%
  time constant of the shrinkage (τ): 13.2 ± 3.2 min
[3]; [6]
  steady-state cell volume (v∞): 95.7±0.7%
  time constant of the shrinkage (τ): 6.6 ± 3.2 min
[3]; 10 μM ATP + 6 μM TMX, FIG. 10A
  steady-state cell volume (v∞): 92.8±0.8%
  time constant of the shrinkage (τ): 11.4 ± 0.3 min
[3]; 10 μM ATP+10 μM TMX, FIG. 8B
  steady-state cell volume (v∞): 95.7±0.3%
  time constant of the shrinkage (τ): 1.4 ± 0.7 min
[3]; 10 μM agent, 100 μM ATP, FIG. 13A
  effect of agent on shrinkage in the presence of ATP: enhanced shrinkage
[3]; [7]
  steady-state cell volume (v∞): 89.7±6.1%
  time constant of the shrinkage (τ): 22.9 ± 19.0 min
[3]; [8]
  steady-state cell volume (v∞): 93.9±1.0%
  time constant of the shrinkage (τ): 15.6 ± 5.0 min
[3]; [9]
  steady-state cell volume (v∞): 89.6±1.9%
  time constant of the shrinkage (τ): 11.3 ± 4.7 min
[3]; [10]
  steady-state cell volume (v∞): 94.1±0.6%
  time constant of the shrinkage (τ): 6.5 ± 2.3 min
[3]; [11]
  steady-state cell volume (v∞): 94.8±0.4%
  time constant of the shrinkage (τ): 2.2 ± 10.8 min
[3]; 6-10 μM tamoxifen with ATP
  effect of tamoxifen on the ATP-triggered shrinkage: strongly enhanced; also recorded: enhanced the response; also recorded: enhanced the ATP-triggered shrinkage
[3]; [12]
  steady-state cell volume (v∞): 88.4±0.5%
  time constant of the shrinkage (τ): 7.2 ± 0.9 min
[3]; [13]
  steady-state cell volume (v∞): 94.2%±0.3%
  time constant of the shrinkage (τ): 4.4 ± 0.8 min
[3]
  effect of tamoxifen alone on PE cell volume: no consistent response
[3]; listed as Tamoxifen
  effect of tamoxifen alone on PE cell volume: no consistent effect
[4]
  effect of TMX on the Ca2+ response to ATP: does not alter the magnitude of the response
[4]; listed as TMX
  effect of TMX on the Ca2+ response to ATP: did not affect the size
[4]; 10 μM tamoxifen alone
  change (Δ) in intracellular Ca2+: 7 ± 6 nM
[4]; tamoxifen alone
  effect of tamoxifen alone on Ca2+: no significant effect
